Measured values published in ChEMBL document CHEMBL1131945, “Nonpeptide small-molecular inhibitors of dipeptidyl peptidase IV: N-phenylphthalimide analogs” (Bioorg Med Chem Lett, 1999).
Several values for one entry are separate records, joined by “and”; a condition that tells them apart may be missing. Equal entries are not always repeated.

Experiments:
[1] = target: Aminopeptidase N (Homo sapiens, UniProt P15144); assay: Inhibitory activity against aminopeptidase N (APN) in human acute lymphoblastic leukemia MOLT-4 cell line; format: cell-based
[2] = target: Dipeptidyl peptidase 4 (Homo sapiens, UniProt P27487); assay: Inhibitory activity against Dipeptidylpeptidase IV (DPP IV) in human acute lymphoblastic leukemia MOLT-4 cell line; format: cell-based
[3] = Cytotoxicity in human embryonic lung flbroblast Wl-38 cells using WST-1 viability assay

Sequence of Dipeptidyl peptidase 4 (P27487 whole entry): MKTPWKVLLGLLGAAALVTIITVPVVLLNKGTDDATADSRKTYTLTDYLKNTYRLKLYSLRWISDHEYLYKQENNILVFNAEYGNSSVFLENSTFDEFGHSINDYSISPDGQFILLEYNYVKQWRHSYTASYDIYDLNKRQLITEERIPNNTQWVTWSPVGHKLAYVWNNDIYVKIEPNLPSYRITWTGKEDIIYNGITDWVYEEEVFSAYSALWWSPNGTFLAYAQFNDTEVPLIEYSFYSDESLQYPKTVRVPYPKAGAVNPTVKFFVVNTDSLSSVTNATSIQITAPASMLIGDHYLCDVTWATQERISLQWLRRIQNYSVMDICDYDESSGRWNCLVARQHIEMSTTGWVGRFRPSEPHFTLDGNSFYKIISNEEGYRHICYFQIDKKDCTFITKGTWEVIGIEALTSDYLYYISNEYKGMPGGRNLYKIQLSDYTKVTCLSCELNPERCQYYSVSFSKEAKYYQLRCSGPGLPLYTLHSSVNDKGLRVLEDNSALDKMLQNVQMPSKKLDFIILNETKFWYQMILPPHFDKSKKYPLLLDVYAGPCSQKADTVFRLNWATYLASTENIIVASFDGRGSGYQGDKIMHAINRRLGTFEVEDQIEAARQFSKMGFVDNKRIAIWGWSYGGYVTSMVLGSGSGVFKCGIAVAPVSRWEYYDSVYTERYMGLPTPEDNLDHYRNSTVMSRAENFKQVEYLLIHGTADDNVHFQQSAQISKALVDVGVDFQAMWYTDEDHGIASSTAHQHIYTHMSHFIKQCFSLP
Sequence of Aminopeptidase N (P15144 whole entry): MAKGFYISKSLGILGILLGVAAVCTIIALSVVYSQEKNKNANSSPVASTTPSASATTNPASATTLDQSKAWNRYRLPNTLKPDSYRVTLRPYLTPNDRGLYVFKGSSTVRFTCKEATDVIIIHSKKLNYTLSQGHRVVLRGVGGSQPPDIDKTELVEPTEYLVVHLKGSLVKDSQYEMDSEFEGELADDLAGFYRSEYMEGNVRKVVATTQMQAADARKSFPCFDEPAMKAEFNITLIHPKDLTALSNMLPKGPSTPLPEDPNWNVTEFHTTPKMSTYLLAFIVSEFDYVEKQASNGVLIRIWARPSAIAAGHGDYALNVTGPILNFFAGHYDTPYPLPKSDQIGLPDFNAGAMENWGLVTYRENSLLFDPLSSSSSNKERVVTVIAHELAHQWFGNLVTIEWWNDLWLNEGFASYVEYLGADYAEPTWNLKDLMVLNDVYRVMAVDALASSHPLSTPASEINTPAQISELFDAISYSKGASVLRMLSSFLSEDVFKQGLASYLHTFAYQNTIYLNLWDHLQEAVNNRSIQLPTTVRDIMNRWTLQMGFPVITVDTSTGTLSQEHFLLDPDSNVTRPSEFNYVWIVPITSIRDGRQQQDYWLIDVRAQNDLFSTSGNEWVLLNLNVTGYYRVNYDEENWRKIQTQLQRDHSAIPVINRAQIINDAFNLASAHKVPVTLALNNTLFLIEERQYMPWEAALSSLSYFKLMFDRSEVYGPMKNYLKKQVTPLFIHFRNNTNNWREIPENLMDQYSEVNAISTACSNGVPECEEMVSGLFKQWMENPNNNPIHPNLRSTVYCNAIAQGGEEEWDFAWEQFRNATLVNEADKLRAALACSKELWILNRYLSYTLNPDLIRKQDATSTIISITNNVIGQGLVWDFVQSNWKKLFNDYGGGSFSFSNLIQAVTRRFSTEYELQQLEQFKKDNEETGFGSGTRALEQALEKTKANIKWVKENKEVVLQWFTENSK

IC50 [1] | IC50 [2] | Compound | IC50 [3]
> 338 µM | > 338 µM | Cc1cccc(C)c1N1C(=O)c2ccc([N+](=O)[O-])cc2C1=O | > 100 µg/mL
 | 30.3 µM and 30.4 µM | CC(C)c1cccc(C(C)C)c1N1C(=O)c2c(F)c(F)c(F)c(F)c2C1=S | > 100 µg/mL and > 253 µM
> 338 µM | > 338 µM | Cc1cccc(C)c1N1C(=O)c2cccc([N+](=O)[O-])c2C1=O | > 100 µg/mL
> 318 µM | > 318 µM | CSc1ccccc1N1C(=O)c2cccc([N+](=O)[O-])c2C1=O | > 100 µg/mL
 | > 374 µM | Cc1cccc(C)c1N1C(=O)c2cccc(O)c2C1=O | > 100 µg/mL
109 µM | 60.1 µM | Cc1cccc(C)c1N1C(=O)c2cccc(N)c2C1=O | > 100 µg/mL and > 376 µM
> 309 µM and 309 µM | 57.8 µM | CC(C)c1cccc(C(C)C)c1N1C(=O)c2ccccc2C1=S | 60.5 µg/mL and 187 µM
134 µM | 226 µM | CSc1ccccc1N1C(=O)c2cccc(O)c2C1=O | > 100 µg/mL and > 350 µM
 | > 325 µM | CC(C)c1cccc(C(C)C)c1N1C(=O)c2ccccc2C1=O | > 100 µg/mL
 | > 398 µM | Cc1cccc(C)c1N1C(=O)c2ccccc2C1=O | > 100 µg/mL
 | > 284 µM | CC(C)c1cccc(C(C)C)c1N1C(=O)c2cccc([N+](=O)[O-])c2C1=O | 93.1 µg/mL and 264 µM
 | > 284 µM | CC(C)c1cccc(C(C)C)c1N1C(=O)c2ccc([N+](=O)[O-])cc2C1=O | 42.7 µg/mL and 121 µM

Further lines, the compound ahead of its results:

Compound | IC50 [1] | IC50 [2] | IC50 [3]
CC(C)c1cccc(C(C)C)c1N1C(=S)c2c(F)c(F)c(F)c(F)c2C1=S |  | 36.7 µM | 1.4 µg/mL and 3.4 µM
CCc1cccc(CC)c1N1C(=O)c2cccc(O)c2C1=O |  | 43.3 µM | > 100 µg/mL and > 339 µM
Cc1cccc(C)c1N1C(=O)c2ccc(N)cc2C1=O |  |  | > 100 µg/mL and > 376 µM
CC(C)c1cccc(C(C)C)c1N1C(=O)c2ccc(O)cc2C1=O |  |  | 12.7 µg/mL and 39.3 µM
Cc1cccc(C)c1N1C(=O)c2ccc(O)cc2C1=O |  |  | > 100 µg/mL and > 374 µM
CC(C)c1cccc(C(C)C)c1N1C(=O)c2cccc(O)c2C1=O |  |  | > 100 µg/mL and > 309 µM
CCc1cccc(CC)c1N1C(=O)c2ccc(O)cc2C1=O |  |  | 52 µg/mL and 176 µM
CC(C)c1cccc(C(C)C)c1N1C(=O)c2ccc(N)cc2C1=O |  |  | > 100 µg/mL and > 310 µM
